The test concerns Escherichia coli. The test can be described thus: Survival (viability) of bacteria collected using surfactant-containing solution. The class given is cell-based. To be noted: 1% surfactant solution, 20° C.; then capture with 10% cationic graft polymer; one hundredth of suspension cultured 37° C. 18 hours; Control 1 >5000. How it is done:
Escherichia coli precipitated on a separating agent in a blood collection tube is collected while being alive using a non-ionic surfactant-containing solution.
The produced Escherichia coli was added to a physiological saline solution in an amount of 2×10^8 cell/mL, and the resulting mixture was used as a sample.
To a blood collection tube, 3 mL of a bacterial solution in which Escherichia coli was dispersed in a physiological saline solution was added, and was centrifuged at 3000 rpm for five minutes. Thereafter, the supernatant was removed. Subsequently, 0.5 mL of a 1% surfactant solution was added to the blood collection tube, and a bacterial cell precipitated on a surface of a separating agent was dispersed.
The bacterial cell suspension was allowed to stand at 20° C. for 30 minutes and three hours. Thereafter, 100 μL of a 10% cationic graft polymer and 100 μL of a reaction solution were mixed and allowed to react for one minute. Thereafter, the resulting product was centrifuged for 30 seconds by a tabletop small centrifugal machine to obtain a precipitation pellet. The supernatant was removed, and the resulting precipitation pellet was completely dispersed with 500 μL of a dispersion solution to obtain a suspension. One hundredth of the suspension was cultured at 37° C. for 18 hours using a LB bacteria culture agar medium, and the number of living bacteria was confirmed by the number of colonies.
As a control, a physiological saline solution was used in place of the surfactant solution (Control 1).

As to sucrose laurate, the “the number of colonies, allowed to stand for 30 minutes” value is 4000 and the “the number of colonies, allowed to stand for 3 hours” value was 3200.

`C[C@H](CCC(=O)NCCC[N+](C)(C)CCCS(=O)(=O)[O-])[C@H]1CC[C@H]2[C@@H]3[C@H](O)C[C@@H]4C[C@H](O)CC[C@]4(C)[C@H]3C[C@H](O)[C@]12C` [CHAPS]: the “the number of colonies, allowed to stand for 30 minutes” value worked out at 84 and the “the number of colonies, allowed to stand for 3 hours” value is 61.

Values taken from patent US10252258B2, “Method for separating and concentrating target substance using novel cationic graft polymer” (priority 2014, dated 2019).
